Measurements from patent publication US12391939B2, “Genetically-encoded bicyclic peptide libraries” (THE GOVERNORS OF THE UNIVERSITY OF ALBERTA, priority 2018, dated 2025).
Numbered stars: 1 amine (or outer) side, 2 acyl side, 3 side chain; on linkers, the order of the positions; unused ones are H or OH. Bridge positions count the residues as written; N and C are the ends. Ends that are not written are not given here. Peptide text beside a SMILES is read from it. X1 = O=C(C=NOCCCCCCOc1cc(C[*:2])cc(C[*:3])c1)[*:1]; X2 = O=C(C=NOCc1cc(C[*:2])cc(C[*:3])c1)[*:1]; TSL6 = not defined here

What was measured:
in vitro = settings: for remaining at 5 h: isolated enzyme pronase
Experimental: The mixture was analyzed by ion-selective LCMS. […] Linear, disulfide and two bicycle compounds made from TSL-1 and TSL-6 linker were incubated with Pronase™ for the indicated period of time (up to 5 hours). The reaction was diluted and analyzed by Ion selective MS-UPLC. The numbers indicate % of intact compound remaining after 5 hours of digestion.
In another rigorous stability test, an aggressive cocktail of endo- and exoproteases (Pronase) were used to digest linear sequence [sequence]

Nodal = target: T1, Nodal (Homo sapiens, UniProt Q96S42); assay: Inhibition of Nodal-induced Smad2 phosphorylation in P19 cells (Western blot, anti-phospho Smad antibody); format: cell-based; settings: for ability to antagonize the signaling function of protein Nodal: carcinoma cells
T1 construct: host or cells: added to embryonic carcinoma P19 cells
T1 sequence (Q96S42 238-347): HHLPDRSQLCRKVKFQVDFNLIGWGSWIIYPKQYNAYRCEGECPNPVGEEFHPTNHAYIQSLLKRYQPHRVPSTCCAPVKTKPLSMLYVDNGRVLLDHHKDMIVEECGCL
Experimental: To validate the binding ability of the predicted ligands, we tested the ability of the bicycles to inhibit a known signaling event induced by Nodal. Specifically, we employed Western blot with anti-phospho Smad antibody to detect Nodal-induced phosphorylation of effector protein Smad2 in embryonic carcinoma P19 cells. FIG. 17a describes that treatment of P19 cells with 100 ng/mL Nodal for 1 hour in Dulbecco's Modified Eagles Media (DMEM) supplemented with 2.5% fetal bovine serum (FBS)+7.5% bovine serum albumin (BSA) induces increase in pSmad2 intensity. Nodal-induced increase in pSmad is abrogated when P19 cells are incubated with 100 ng/mL Nodal and known kinase inhibitors SB-431542. […] The bicyclic peptides serve as antagonists of Nodal at 100 micromolar concentration.

Molecule	remaining at 5 h (in vitro) [%]	also measured
CC(C)C[C@H](NC(=O)[C@H](Cc1ccc(O)cc1)NC(=O)[C@H](CS)NC(=O)[C@H](CCC(=O)O)NC(=O)[C@H](CCCNC(=N)N)NC(=O)[C@H](Cc1ccc(O)cc1)NC(=O)[C@H](CC(=O)O)NC(=O)[C@H](Cc1c[nH]c2ccccc12)NC(=O)[C@@H](N)CO)C(=O)N[C@@H](CCC(=O)O)C(=O)N[C@@H](CS)C(=O)O [reference compound] (H-SWDYRECYLEC-OH; N-terminus and C-terminus assumed)	0.4 ± 0.1	–
CC(C)C[C@@H]1NC(=O)[C@H](Cc2ccc(O)cc2)NC(=O)[C@@H](NC(=O)[C@H](CCC(=O)O)NC(=O)[C@H](CCCNC(=N)N)NC(=O)[C@H](Cc2ccc(O)cc2)NC(=O)[C@H](CC(=O)O)NC(=O)[C@H](Cc2c[nH]c3ccccc23)NC(=O)[C@@H](N)CO)CSSC[C@@H](C(=O)O)NC(=O)[C@H](CCC(=O)O)NC1=O [reference compound] (H-SWDYRECYLEC-OH; disulfide 7-11; N-terminus and C-terminus assumed)	0.9 ± 0.4	–
CC(C)C[C@@H]1NC(=O)[C@H](Cc2ccc(O)cc2)NC(=O)[C@@H]2CSCc3cc(cc(c3)OCCCCCCON=CC(=O)N[C@@H](Cc3c[nH]c4ccccc34)C(=O)N[C@@H](CC(=O)O)C(=O)N[C@@H](Cc3ccc(O)cc3)C(=O)N[C@@H](CCCNC(=N)N)C(=O)N[C@@H](CCC(=O)O)C(=O)N2)CSC[C@@H](C(=O)O)NC(=O)[C@H](CCC(=O)O)NC1=O (WDYRECYLEC-OH; linker N-6-10 via X1; C-terminus assumed)	68 ± 14	–
SYCKRAHKNC (linker (positions not given here) via TSL6; reading uncertain; also: bicyclised with TSL6 linker) [bicyclic peptide 11]	–	ability to antagonize the signaling function of protein Nodal (Nodal): have the ability to antagonize
NC(=O)c1ccc(-c2nc(-c3ccc4c(c3)OCO4)c(-c3ccccn3)[nH]2)cc1 [SB-431542, reference compound]	–	Nodal-induced increase in pSmad with known kinase inhibitor (Nodal; P19 cells, 100 ng/mL Nodal, inhibitor concentration not given): abrogated
CC(C)C[C@@H]1NC(=O)[C@H](Cc2ccc(O)cc2)NC(=O)[C@@H]2CSCc3cc(cc(c3)CSC[C@@H](C(=O)O)NC(=O)[C@H](CCC(=O)O)NC1=O)CON=CC(=O)N[C@@H](Cc1c[nH]c3ccccc13)C(=O)N[C@@H](CC(=O)O)C(=O)N[C@@H](Cc1ccc(O)cc1)C(=O)N[C@@H](CCCNC(=N)N)C(=O)N[C@@H](CCC(=O)O)C(=O)N2 (WDYRECYLEC-OH; linker N-6-10 via X2; C-terminus assumed)	82 ± 13	half-life (in vitro; Streptomyces griseus): ~24 h
SPCQRGHMFC (linker (positions not given here) via TSL6; reading uncertain; also: bicyclised with TSL6 linker) [bicyclic peptide 7]	–	ability to antagonize the signaling function of protein Nodal (Nodal): have the ability to antagonize
